ChEMBL document CHEMBL4346748, “Growth inhibition by 1-deoxy-d-allulose, a novel bioactive deoxy sugar, screened using Caenorhabditis elegans assay” (Bioorg Med Chem Lett, 2019)
Active and inactive are the calls of the source. No cut-off for these calls is given here.

Assays:
Caenorhabditis elegans [1] = assay: Growth inhibition of Caenorhabditis elegans N2 assessed as body size at 42 mM incubated for 72 hrs by microscopic method relative to control; format: functional
Caenorhabditis elegans [2] = assay: Growth inhibition of Caenorhabditis elegans N2 assessed as reduction in body size incubated for 72 hrs by microscopic method; format: functional; conditions: for GI50: N2, 72 h
[3] = Toxicity in Caenorhabditis elegans N2 assessed as mortality at 42 mM incubated for 72 hrs by microscopic method; conditions: 42000 µM
Caenorhabditis elegans [4] = assay: Ratio of GI50 for D-Alu to GI50 for test compound for growth inhibition of Caenorhabditis elegans N2 assessed as reduction in body size incubated for 72 hrs by microscopic method; format: functional
Caenorhabditis elegans [5] = assay: Growth inhibition of Caenorhabditis elegans N2 assessed as reduction in body size at 9.5 mM incubated for 72 hrs in presence of D-fructose by microscopic method; format: functional, organism-based
Caenorhabditis elegans [6] = assay: Growth inhibition of Caenorhabditis elegans N2 assessed as reduction in motility at 42 mM incubated for 72 hrs by microscopic method; format: functional, organism-based
Caenorhabditis elegans [7] = assay: Growth inhibition of Caenorhabditis elegans N2 assessed as effect on body size at 42 mM incubated for 72 hrs by microscopic method; format: functional, organism-based
Caenorhabditis elegans [8] = assay: Growth inhibition of Caenorhabditis elegans N2 assessed as reduction in body size at 9.5 mM incubated for 72 hrs in presence of up to 67 mM D-glucose by microscopic method; format: functional, organism-based
Caenorhabditis elegans [9] = assay: Growth inhibition of Caenorhabditis elegans N2 assessed as reduction in body size at 9.5 mM incubated for 72 hrs in presence of D-ribose by microscopic method; format: functional, organism-based
Caenorhabditis elegans [10] = assay: Growth inhibition of Caenorhabditis elegans N2 assessed as effect on body shape at 42 mM incubated for 72 hrs by microscopic method; format: functional, organism-based

For `CC(=O)[C@H](O)[C@@H](O)[C@H](O)CO`, the “growth inhibition (GI)” value (Caenorhabditis elegans [1]) was “inactive”.
For `CC(=O)[C@@H](O)[C@H](O)[C@H](O)CO`, the “growth inhibition (GI)” value (Caenorhabditis elegans [1]) was “inactive”.
For `CC(=O)[C@@H](O)[C@@H](O)[C@@H](O)CO`, the “growth inhibition (GI)” value (Caenorhabditis elegans [1]) was “inactive”.
Compound `O=C(CO)[C@H](O)[C@H](O)[C@H](O)CO` has a GI50 (Caenorhabditis elegans [2]) of 52.7 mM.
In the case of `CC(=O)[C@@H](O)[C@@H](O)[C@H](O)CO`, the “growth inhibition (GI)” value (Caenorhabditis elegans [1]) is reported as “inactive”.
In the case of `CC(=O)[C@H](O)[C@H](O)[C@H](O)CO`, the Activity [3] is reported as “Non-Toxic”, the RatioGI50 (Caenorhabditis elegans [4]) is reported as 10 and the “growth inhibition (GI)” value (Caenorhabditis elegans [5]) is reported as “inactive”. The “growth inhibition (GI)” value (Caenorhabditis elegans [6]) was “Active”, the “growth inhibition (GI)” value (Caenorhabditis elegans [7]) was “Active” and the “growth inhibition (GI)” value (Caenorhabditis elegans [2]) was “Dose-dependent effect”. For the same compound, the GI50 (Caenorhabditis elegans [2]) was 5.4 mM, the Activity (Caenorhabditis elegans [1]) was 5.7% and the “growth inhibition (GI)” value (Caenorhabditis elegans [8]) was “Active”. For the same compound, the “growth inhibition (GI)” value (Caenorhabditis elegans [9]) was “inactive” and the “growth inhibition (GI)” value (Caenorhabditis elegans [10]) was “Active”.
With `CC(=O)[C@H](O)[C@H](O)[C@@H](O)CO` the “growth inhibition (GI)” value (Caenorhabditis elegans [1]) was “inactive”.
In the case of `CC(=O)[C@@H](O)[C@H](O)[C@@H](O)CO`, the “growth inhibition (GI)” value (Caenorhabditis elegans [1]) is reported as “inactive”.
In the case of `CC(=O)[C@H](O)[C@@H](O)[C@@H](O)CO`, the “growth inhibition (GI)” value (Caenorhabditis elegans [1]) is reported as “inactive”.
In the case of `C[C@@H](O)[C@@H](O)[C@@H](O)C(=O)CO`, the “growth inhibition (GI)” value (Caenorhabditis elegans [1]) is reported as “inactive”.
With `O=C(CO)[C@H](O)[C@H](O)CCO` the “growth inhibition (GI)” value (Caenorhabditis elegans [1]) was “inactive”.
